Where two headings read alike, the source gives them in different places.
Legend:
mouse BACE-1 = molecular target: T1, mouse BACE-1 (Mus musculus, UniProt P56818); assay: BACE-1 activity, fluorimetric method; assay type: biochemical; settings: for IC50: mouse BACE-1, pH 4.5, semilogarithmic plot
T1 construct: purchased Life Technology

TRPM7 [1] = assay: Trpm7 mRNA expression in hippocampus by qPCR; assay type: in vivo, mouse; settings: treatment day 3 to 10 postinduction; upregulated by sAβ
[2] = molecular target: T2, butirrylcholinesterase from equine serum BuChE (Equus caballus, UniProt P81908); assay: Cholinesterase activity by the Elmann method, kinetic parameters and Ki on BuChE; assay type: biochemical; settings: for inhibition type on BuChE: decrease of Vmax without affecting Km
T2 construct: purchased Sigma-Aldrich; host or cells: equine serum
T2 sequence (P81908 whole entry): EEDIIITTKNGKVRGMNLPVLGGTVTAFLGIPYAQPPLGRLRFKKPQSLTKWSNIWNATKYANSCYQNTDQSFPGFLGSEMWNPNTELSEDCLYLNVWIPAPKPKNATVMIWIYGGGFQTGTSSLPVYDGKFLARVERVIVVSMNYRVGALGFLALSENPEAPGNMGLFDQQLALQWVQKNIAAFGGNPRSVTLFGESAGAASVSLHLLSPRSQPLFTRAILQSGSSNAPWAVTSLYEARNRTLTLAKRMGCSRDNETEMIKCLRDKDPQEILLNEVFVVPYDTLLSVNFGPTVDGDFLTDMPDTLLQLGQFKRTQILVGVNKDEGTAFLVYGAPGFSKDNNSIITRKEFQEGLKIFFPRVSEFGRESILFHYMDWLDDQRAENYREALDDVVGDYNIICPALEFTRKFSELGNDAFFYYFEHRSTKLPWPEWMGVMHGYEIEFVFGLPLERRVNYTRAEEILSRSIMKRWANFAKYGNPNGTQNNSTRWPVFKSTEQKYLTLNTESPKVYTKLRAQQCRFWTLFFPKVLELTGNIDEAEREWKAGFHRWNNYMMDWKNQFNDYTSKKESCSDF

sAβ-injected mice [3] = assay: Tail suspension test in sAβ-induced AD mouse model; assay type: in vivo, CD1 male mice; settings: 10 mg/kg i.p. repeated, days 3 to 10 after sAβ; sAβ/veh 74.250 ± 7.465; mean ± SEM
[4] = especially in a tween-based vehicle; ref Anderson et al. [2019]; cited from earlier work
[5] = molecular target: T3, Acetylcholinesterase from Electrophorus electricus AChE (Electrophorus electricus, UniProt O42275); assay: Cholinesterase activity by the Elmann method, kinetic parameters and Ki on AChE; assay type: biochemical; settings: for inhibition type on AChE: increase in Km without affecting Vmax
T3 construct: purchased Sigma-Aldrich
T3 sequence (O42275 24-633): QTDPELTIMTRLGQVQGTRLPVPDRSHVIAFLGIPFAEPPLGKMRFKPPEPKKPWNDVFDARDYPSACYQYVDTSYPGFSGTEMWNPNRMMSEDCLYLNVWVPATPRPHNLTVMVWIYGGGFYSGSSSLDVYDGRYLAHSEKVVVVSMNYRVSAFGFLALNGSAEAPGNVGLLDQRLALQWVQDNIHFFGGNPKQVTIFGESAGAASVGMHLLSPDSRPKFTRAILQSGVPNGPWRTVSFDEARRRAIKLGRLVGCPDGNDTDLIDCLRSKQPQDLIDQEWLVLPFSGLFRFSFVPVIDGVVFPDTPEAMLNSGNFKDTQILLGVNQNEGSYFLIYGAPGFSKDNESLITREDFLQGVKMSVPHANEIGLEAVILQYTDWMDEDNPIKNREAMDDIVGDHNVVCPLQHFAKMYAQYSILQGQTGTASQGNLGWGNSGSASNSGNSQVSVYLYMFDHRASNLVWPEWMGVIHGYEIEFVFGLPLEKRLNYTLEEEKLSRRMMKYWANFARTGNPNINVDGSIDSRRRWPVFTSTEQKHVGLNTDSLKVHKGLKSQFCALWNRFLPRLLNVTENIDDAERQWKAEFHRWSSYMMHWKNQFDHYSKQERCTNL

GPR109A (HCA2) = molecular target: T4, GPR109A (HCA2) (Homo sapiens, UniProt Q8TDS4); assay: β-arrestin recruitment assay on GPR109A (HCA2-Tango, HTLA-HEK293 cells); assay type: cell-based; settings: HTLA-HEK293 cells expressing HCA2; different doses; 20 h; vs vehicle
T4 construct: Tango fusion module; host or cells: HTLA-HEK293 cells stably expressing β-arrestin2-TEV and tTA-driven luciferase
T4 sequence (Q8TDS4 whole entry, the tested form may be a part): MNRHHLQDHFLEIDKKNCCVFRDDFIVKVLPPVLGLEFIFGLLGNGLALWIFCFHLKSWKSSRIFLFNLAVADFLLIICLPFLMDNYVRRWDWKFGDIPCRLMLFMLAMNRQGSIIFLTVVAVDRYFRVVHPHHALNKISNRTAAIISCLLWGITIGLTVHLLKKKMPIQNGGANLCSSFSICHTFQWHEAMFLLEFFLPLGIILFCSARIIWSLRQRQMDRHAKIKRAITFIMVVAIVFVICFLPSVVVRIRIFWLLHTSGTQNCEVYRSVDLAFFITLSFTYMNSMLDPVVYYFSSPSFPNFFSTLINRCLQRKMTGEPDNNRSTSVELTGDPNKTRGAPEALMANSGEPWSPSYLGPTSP

TRPM7 [6] = settings: ref Suzuki et al. [2023]; cited from earlier work
PPARα/γ = settings: ref D'Aniello et al. [2019]; cited from earlier work
[7] = molecular target: T5, Human β-amyloid peptide (1–40) (Homo sapiens, UniProt P05067); assay: Aβ 1–40 self-aggregation inhibition assay (thioflavine T); assay type: biochemical; settings: 96 μM peptide, 37°C, 24 h
T5 construct: Human β‐amyloid peptide (1–40, cat. ab120479); purchased Abcam ab120479
T5 sequence (P05067 672-711 limits assumed): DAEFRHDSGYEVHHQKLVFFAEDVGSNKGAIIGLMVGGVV

[8] = system: LEC-DG pathway (hippocampus) of sAβ-injected mice; assay: In vivo LTP recording in the LEC-DG pathway of sAβ-injected mice; parameters: species or system CD1 male mice; settings: 10 mg/kg i.p. repeated; for fEPSP slope after TBS: 30–60 min after TBS, sAβ/veh 110.92 ± 0.86; for fEPSP slope after TBS / fEPSP amplitude 30–60 min after TBS: relative to baseline; for fEPSP amplitude 30–60 min after TBS: sAβ/veh 110.5 ± 1.73
sAβ-injected mice [9] = assay: Novel object recognition test in sAβ-induced AD mouse model; assay type: in vivo, CD1 male mice; settings: 10 mg/kg i.p. repeated, days 3 to 10 after sAβ; test at 1 h; sAβ/veh −0.115 ± 0.030; mean ± SEM
[10] = molecular target: T6, cannabinoid CB2 receptor (CNR2-Tango) (Homo sapiens, UniProt P34972); assay: β-arrestin recruitment assay, positive control CNR2-Tango; assay type: cell-based
T6 construct: Tango fusion module; expressed in transfected cells; host or cells: HTLA-HEK293 cells
T6 sequence (P34972 whole entry, the tested form may be a part): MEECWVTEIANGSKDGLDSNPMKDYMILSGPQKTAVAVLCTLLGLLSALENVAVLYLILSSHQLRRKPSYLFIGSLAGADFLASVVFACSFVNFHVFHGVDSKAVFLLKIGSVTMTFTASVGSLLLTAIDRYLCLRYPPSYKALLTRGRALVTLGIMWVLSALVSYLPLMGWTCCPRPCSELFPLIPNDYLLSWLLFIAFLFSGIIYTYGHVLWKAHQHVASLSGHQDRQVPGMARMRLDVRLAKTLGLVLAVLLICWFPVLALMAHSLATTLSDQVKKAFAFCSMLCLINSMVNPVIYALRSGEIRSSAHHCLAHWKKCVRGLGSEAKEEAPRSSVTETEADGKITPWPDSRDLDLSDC

[11] = BuChE, Exp. 1, inhibitor 10 µM, Lineweaver-Burk equation, from decrease of Vmax, mean Ki in μM, read-out: Ki LB
[12] = BuChE, Exp. 1, inhibitor 10 µM, Lineweaver-Burk equation, no inhibitor 0.295
[13] = BuChE, Exp. 1, inhibitor 10 µM, Michaelis-Menten interpolation, from decrease of Vmax, mean Ki in μM, read-out: Ki MM
[14] = BuChE, Exp. 1, inhibitor 10 µM, Michaelis-Menten interpolation, no inhibitor 0.299
[15] = BuChE, Exp. 2, inhibitor 2.66 µM, Lineweaver-Burk equation, from decrease of Vmax, mean Ki in μM, read-out: Ki LB
[16] = BuChE, Exp. 2, inhibitor 2.66 µM, Lineweaver-Burk equation, no inhibitor 0.220
[17] = BuChE, Exp. 2, inhibitor 2.66 µM, Michaelis-Menten interpolation, from decrease of Vmax, mean Ki in μM, read-out: Ki MM
[18] = mean over experiments, n = 4, noncompetitive inhibition, read-out: calculated Ki, BuChE
[19] = AChE, inhibitor 1.25 µM, Lineweaver-Burk equation, from increase of Km, mean Ki in μM, read-out: Ki LB
[20] = AChE, inhibitor 1.25 µM, Michaelis-Menten interpolation, from increase of Km, mean Ki in μM, read-out: Ki MM
[21] = AChE, inhibitor 2.50 µM, Lineweaver-Burk equation, from increase of Km, mean Ki in μM, read-out: Ki LB
[22] = AChE, inhibitor 3.00 µM, Lineweaver-Burk equation, from increase of Km, mean Ki in μM, read-out: Ki LB
[23] = AChE, inhibitor 3.00 µM, Michaelis-Menten interpolation, from increase of Km, mean Ki in μM, read-out: Ki MM
[24] = mean over experiments, n = 6 CBDA, n = 7 CBGA, competitive inhibition, read-out: calculated Ki, AChE

T1 sequence (P56818 46-501): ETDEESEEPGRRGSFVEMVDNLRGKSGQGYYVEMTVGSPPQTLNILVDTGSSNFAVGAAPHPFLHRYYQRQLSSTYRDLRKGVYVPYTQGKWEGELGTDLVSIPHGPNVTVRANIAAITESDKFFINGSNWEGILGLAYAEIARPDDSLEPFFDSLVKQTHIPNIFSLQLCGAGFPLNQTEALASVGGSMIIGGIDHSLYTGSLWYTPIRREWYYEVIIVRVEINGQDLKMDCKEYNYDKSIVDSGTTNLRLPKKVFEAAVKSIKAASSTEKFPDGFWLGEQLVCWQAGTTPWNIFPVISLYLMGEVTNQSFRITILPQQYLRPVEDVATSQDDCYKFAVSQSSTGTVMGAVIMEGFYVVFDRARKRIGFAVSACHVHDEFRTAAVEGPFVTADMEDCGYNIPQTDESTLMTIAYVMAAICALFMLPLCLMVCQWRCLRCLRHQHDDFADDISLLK

Compound | IC50 (mouse BACE-1) [µM] | Trpm7 expression in hippocampus (TRPM7 [1]) | Ki [2, 11] [µM] | Vmax LB [2, 12] | Ki [2, 13] [µM] | Vmax MM [2, 14] | Ki [2, 15] [µM] | Vmax LB [2, 16] | Ki [2, 17] [µM] | inhibition type on BuChE [2] | Ki [2, 18] [µM] | immobility in tail suspension test (sAβ-injected mice [3]) [s] | Ki [5, 19] [µM] | Ki [5, 20] [µM] | Ki [5, 21] [µM] | Ki [5, 22] [µM] | Ki [5, 23] [µM] | inhibition type on AChE [5] | Ki [5, 24] [µM] | β-arrestin recruitment / activation of GPR109A (GPR109A (HCA2)) | other results
C=C(C)[C@@H]1CCC(C)=C[C@H]1c1c(O)cc(CCCCC)c(C(=O)O)c1O [CBDA, cannabidiolic acid] | 6.1 ± 0.2 | reverted to the basal level | 6.1 | 0.112 | 6.6 | 0.119 | 7.5 | 0.162 | 6.4 | noncompetitive inhibitors | 6.7 ± 0.6 | 64.000 ± 12.523 | 55 | 32.1 | 10.5 | 10.6 | 3.4 | competitive inhibitors | 7.9 ± 4.3 | no recruitment of β‐arrestin and no direct receptor activation | blood–brain barrier crossing [4]: can cross the blood–brain barrier; Ki ([5]; AChE, inhibitor 1.75 µM, Lineweaver-Burk equation, from increase of Km, mean Ki in μM, read-out: Ki LB): 4.2 µM; Ki ([5]; AChE, inhibitor 1.75 µM, Michaelis-Menten interpolation, from increase of Km, mean Ki in μM, read-out: Ki MM): 13.9 µM; activity on TRPM7 (TRPM7 [6]): inhibitors of TRPM7; activity on PPARα/γ (PPARα/γ): dual PPARα/γ agonists; IC50 [7]: 57.5 ± 0.8 µM; fEPSP slope after TBS [8]: 157.46 ± 14.5%; fEPSP amplitude 0–15 min (baseline) [8]: 99.97 ± 0.024%; fEPSP slope 0–15 min (baseline) [8]: 99.95 ± 0.27%; fEPSP amplitude 30–60 min after TBS [8]: 132.08 ± 2.83%
CCCCCc1cc(O)c(C/C=C(\C)CCC=C(C)C)c(O)c1C(=O)O [CBGA, cannabigerolic acid] | 1.4 ± 0.1 | reverted to the basal level | 39.2 | 0.235 | 26 | 0.216 | 14.1 | 0.185 | 14 | noncompetitive inhibitors | 23.3 ± 12 | 20.500 ± 6.764 | 13.5 | 9.1 | 9.6 | 6.5 | 8.1 | competitive inhibitors | 10.5 ± 2.9 | no recruitment of β‐arrestin and no direct receptor activation | efficiency in inhibiting mBACE-1, CBGA relative to CBDA (mouse BACE-1; ratio of IC50 values): roughly 4 times; Vmax MM ([2]; BuChE, Exp. 2, inhibitor 2.66 µM, Michaelis-Menten interpolation, no inhibitor 0.249): 0.209; NOR index (recognition index) (sAβ-injected mice [9]): 0.183 ± 0.052; Ki ([5]; AChE, inhibitor 2.50 µM, Michaelis-Menten interpolation, from increase of Km, mean Ki in μM, read-out: Ki MM): 12.2 µM; Ki ([5]; AChE, inhibitor 3.75 µM, Lineweaver-Burk equation, from increase of Km, mean Ki in μM, read-out: Ki LB): 14.4 µM; Ki ([5]; AChE, inhibitor 3.75 µM, Michaelis-Menten interpolation, from increase of Km, mean Ki in μM, read-out: Ki MM): 26.7 µM; activity on TRPM7 (TRPM7 [6]): inhibitors of TRPM7; activity on PPARα/γ (PPARα/γ): dual PPARα/γ agonists; IC50 [7]: 47.7 ± 2.1 µM; fEPSP slope after TBS [8]: 203.21 ± 22.55%; fEPSP amplitude 0–15 min (baseline) [8]: 100.8 ± 0.61%; fEPSP slope 0–15 min (baseline) [8]: 100.94 ± 1.15%; fEPSP amplitude 30–60 min after TBS [8]: 174.34 ± 6.97%
CCCC(C)(C)c1ccc2c(c1)OC(C)(C)[C@@H]1CC=C(C)C[C@@H]21 [JWH-133] | – | – | – | – | – | – | – | – | – | – | – | – | – | – | – | – | – | – | – | – | β-arrestin recruitment at CB2 receptor [10]: strong β-arrestin recruitment
